The text below walks through data of ChEMBL document CHEMBL4418488, “Compounds and methods of treating ocular disorders” (2017).

Active and inactive are the calls of the source. No cut-off for these calls is given here.

Data set [1] has as its system Mus musculus. Nature of the data set: Protective effect against intense light-induced retinal degeneration in 4 weeks old Abca4(-/-)/Rdh8 (-/-) mouse assessed as inhibition of rate of visual chromophore recovery by measuring 11-cis- retinal level in eye at 0.1 mg dosed via gavage under dark for 24 hrs before exposure to 10000 lux bright light for 1 hr by HPLC analysis relative to control. It counts as functional.

Data set [2] relates to Mus musculus. Put plainly: Protective effect against intense light-induced retinal degeneration in 4 weeks old Abca4(-/-)/Rdh8 (-/-) mouse at 0.1 mg dosed via gavage under dark for 24 hrs before exposure to 10000 lux bright light for 1 hr followed by exposure to dark for 3 days by ERG analysis. In kind it is functional, organism-based.
For data set [3], the system named is Mus musculus. Put plainly: Protective effect against intense light-induced retinal degeneration in wild type mouse assessed as rate of visual chromophore recovery by measuring 11-cis- retinal level in eye at 0.2 mg pretreated with compound followed by exposure to light illumination 7 days after compound dosing (reference value: 85 +/- 5%) by HPLC analysis. In kind it is functional, organism-based.

In data set [4] the test system is Mus musculus. Nature of the data set: Protective effect against intense light-induced retinal degeneration in 4 weeks old Abca4(-/-)/Rdh8 (-/-) mouse assessed as effect on thickness of outer nuclear layer at 1 mg dosed via gavage under dark for 24 hrs before exposure to 10000 lux bright light for 1 hr by SDOCT and ERG analysis. It counts as functional, organism-based.

Data set [5] relates to Mus musculus. Put plainly: Protective effect against intense light-induced retinal degeneration in 4 weeks old Abca4(-/-)/Rdh8 (-/-) mouse at 0.5 mg dosed via gavage under dark for 24 hrs before exposure to 10000 lux bright light for 1 hr followed by exposure to dark for 3 days by ERG analysis. It counts as functional, organism-based.
In data set [6] the test system is Mus musculus. Put plainly: Protective effect against intense light-induced retinal degeneration in 4 weeks old Abca4(-/-)/Rdh8 (-/-) mouse at 0.2 mg dosed via gavage under dark for 24 hrs before exposure to 10000 lux bright light for 1 hr followed by exposure to dark for 3 days by ERG analysis. In kind it is functional, organism-based.
The subject of data set [7] is Mus musculus. Nature of the data set: Protective effect against intense light-induced retinal degeneration in 4 weeks old Abca4(-/-)/Rdh8 (-/-) mouse at 0.1 mg dosed via gavage under dark for 24 hrs before exposure to 10000 lux bright light for 1 hr followed by exposure to dark for 3 days by OCT analysis. It counts as functional, organism-based.
Data set [8] can be described thus: Toxicity in 4 weeks old Abca4(-/-)/Rdh8 (-/-) mouse model of intense light-induced retinal degeneration at 1 mg dosed via gavage under dark for 24 hrs before exposure to 10000 lux bright light for 1 hr by SDOCT and ERG analysis. It counts as organism-based. The settings on record: in vivo, po.
The nature of data set [9]: Drug metabolism in 4 weeks old Abca4(-/-)/Rdh8 (-/-) mouse model of intense light-induced retinal degeneration assessed as accumulation of intense amide peaks in liver at 1 mg dosed via gavage under dark for 24 hrs before exposure to 10000 lux bright light for 1 hr […]. In kind it is ADME, organism-based. The settings on record: in vivo, po.
Data set [10] has as its system Mus musculus. Nature of the data set: Protective effect against intense light-induced retinal degeneration in 4 weeks old Abca4(-/-)/Rdh8 (-/-) mouse assessed as 11-cis retinal levels at 1 mg dosed via gavage under dark for 24 hrs before exposure to 10000 lux bright light for 1 hr by HPLC analysis. In kind it is functional.

With `CC1=C(/C=C/C(C)=C/C=C/C(C)=C/CN)C(C)(C)CCC1`, in the data set with Mus musculus [1], the “inhibition (INH)” value was 40%. For the same molecule, the result in the data set on Mus musculus [2], in the data set with Mus musculus [3] and in the data set with Mus musculus [7] was inactive. Further, the result with Mus musculus [4], in the data set on Mus musculus [5] and in the data set on Mus musculus [6] was Active. Further, the Activity entry in [8] is “Non-Toxic”.

Take `CC(/C=C/C=C(/C=C/c1ccccc1)C(C)(C)C)=C\CN`: the Drug metabolism entry in [9] was “Metabolite_Detected”. In addition, the outcome in the data set with Mus musculus [4] was Active. Also, the Activity entry in data set [8] is “Toxic”.

As for `COc1ccc(C(=C\C=C\C(C)=C\CN)/C=C/c2ccc(O)cc2)cc1`, in the data set with Mus musculus [4], the outcome was inactive. In addition, the Activity entry in data set [8] is on record as “Non-Toxic”.

Regarding `CC1=C(/C=C/C(=C/C=C/C(C)=C/CN)C(C)(C)C)C(C)(C)CCC1`, in the data set with Mus musculus [4], the outcome was inactive. The Activity entry in [8] is on record as “Non-Toxic”.

Take `CC(/C=C/C1=CCCCC1)=C\C=C\C(C)=C\CN`: in the data set with Mus musculus [4], the result was inactive. Besides, the Activity result in data set [8] is on record as “Non-Toxic”.

Consider `CC1=C(/C=C/C(=C/C=C/C(C)=C/CN)C(C)(C)C)CCCC1`, for which, in the data set with Mus musculus [4], the outcome was inactive. Also, in [8], the Activity entry is “Non-Toxic”.

As to `CC(/C=C/C=C(/C=C/c1ccc(C(F)(F)F)cc1)c1ccccc1)=C\CN`, the result in the data set on Mus musculus [4] was inactive. In addition, the Activity entry in [8] is listed as “Toxic”.

Regarding `CC(C)(C)C(=C\C=C\CN)/C=C/C1=CCCCC1`, the result in the data set on Mus musculus [4] was inactive. Besides, the Activity entry in [8] is “Toxic”.

In the case of `CC(/C=C/C=C(/c1ccc2ccccc2c1)C(C)(C)C)=C\CN`, the Drug metabolism result in data set [9] is recorded as “Metabolite_Detected”. Also, the result with Mus musculus [4] was Active. The Activity was 50% in the data set on Mus musculus [10] and “Toxic” in data set [8].

For `CC1=C(/C=C/C=C/C=C/C=C/CN)C(C)(C)CCC1`, the outcome in the data set on Mus musculus [4] was Active. In [8], the Activity result is “Non-Toxic”.

In the case of `COc1ccc(C(=C\C=C\C(C)=C\CN)/C=C/C2=CCCCC2)cc1`, the result in the data set with Mus musculus [4] was inactive. Also, in data set [8], the Activity result is on record as “Non-Toxic”.

With `CC(/C=C/C=C(/C=C/C1=CCCCC1)C(C)(C)C)=C\CN`, in data set [9], the Drug metabolism result is “Metabolite_Detected”. The result with Mus musculus [4] was Active. Moreover, the Activity with Mus musculus [10] was 50%; in data set [8], “Toxic”.
